# Measured values reported in publication PMC6013247, “Preclinical characterization of INCB053914, a novel pan-PIM kinase inhibitor, alone and in combination with anticancer agents, in models of hematologic malignancies” (PLoS ONE, 2018).
# Experiments:
# PDGFR BETA = PDGFR BETA (Homo sapiens, UniProt P09619); assay: Kinase selectivity panel; assay type: biochemical; settings: [ATP] = 1 mM
# [1] = system: PIM kinase substrates (p70S6K/S6 and 4E-BP1) in MOLM-16, Pfeiffer and KMS-12-PE/BM cell lines; assay: Western blot of PIM kinase substrate phosphorylation in cell lines; assay type: cell-based; settings: MOLM-16 (AML), Pfeiffer (DLBCL), KMS-12-PE/BM (MM); 0 to 1 μM, 2 hours
# Method: Inhibition of PIM kinase substrate phosphorylation (BAD, S6, p70S6K, and 4E-BP1) and the upregulation of PIM2 (chosen because of its reduced susceptibility to in vitro kinase inhibition) by INCB053914 was determined by incubating 10^6 MOLM-16 (AML), Pfeiffer (DLBCL), KMS-12-PE (MM), and KMS-12-BM (MM) cells with INCB053914 at concentrations ranging from 0 (phosphate-buffered saline [PBS]) to 1 μM for 2 hours in Roswell Park Memorial Institute (RPMI) medium. Cells were centrifuged at 1,000 rpm for 10 minutes and lysed with 1× lysis buffer (Cell Signaling Technology, Danvers, Massachusetts) supplemented with 1 mM phenylmethane sulfonyl fluoride (Sigma-Aldrich, St Louis, Missouri) and proteinase inhibitor cocktail (CalBiochem, San Diego, California). Cell lysates were stored at –80°C before determining phosphoprotein and PIM2 levels by Western blotting using anti-pBAD (S112), anti-p4E-BP1 (S65), pp70S6K (T389), pS6 (S285/S286), and anti-PIM2 antibodies (Cell Signaling Technology).
# [2] = system: PIM2 expression and 4E-BP1 phosphorylation in whole blood samples; assay: Pharmacodynamic assessment of blood samples from patients with AML in the phase 1/2 trial; assay type: in vivo, human; settings: patients with AML receiving INCB053914 100 mg twice a day; blood 0 to 6 hours post-dose
# [3] = system: BAD phosphorylation in whole blood spiked with KMS-12-BM cells; assay: BAD phosphorylation in whole blood samples spiked with tumor cells, treated ex vivo; assay type: cell-based; settings: Homo sapiens
# MOLM-16 (AML) xenografts = assay: Tumor growth in MOLM-16 (AML) xenograft; assay type: in vivo, mouse
# Method: Female immune compromised (severe combined immunodeficiency [SCID]) mice (5–9 weeks of age; Charles River Laboratories, Wilmington, Massachusetts) were inoculated with MOLM-16, KG-1, or KMS-12-BM cells. A cell suspension in Dulbecco’s phosphate-buffered saline (DPBS) (1 × 10^8 cells/ml) was mixed 1:1 (v/v) with matrigel, and 200 μl was injected subcutaneously into the flank of each mouse. Studies of INCB053914 combination regimens used xenograft models derived from INA-6 (MM) cells or Pfeiffer (DLBCL) cells. INA-6 tumor fragments were injected subcutaneously as brei (100 μl in Hank’s balanced salt solution [HBSS, 1:10 v/v]) into the flank of each mouse; Pfeiffer tumor fragments (1 cm × 1 cm) were directly implanted. The treatment of tumor-bearing mice started 7 to 24 days after tumor inoculation for efficacy studies and approximately 14 to 27 days after tumor inoculation for pharmacodynamic studies.
# For efficacy studies, mice were sorted to obtain approximately equivalent mean tumor volumes in each group. The starting mean tumor volume in efficacy studies for all groups ranged from 158 mm^3 to 249 mm^3, and groups consisted of eight or nine animals. The mean tumor volume in pharmacodynamic studies for all groups ranged from 114 mm^3 to 833 mm^3, and groups consisted of three to eight animals. […]
# Tumor volume was calculated in two dimensions using the equation: volume = [length × (width^2)] / 2, where the larger number was length and the smaller number was width. Effects on tumor growth were reported as percent tumor growth inhibition calculated as (1 − [treatment volume / control volume]) × 100, where control volume was the vehicle/untreated tumor volume on a given day and treatment volume was any treatment group tumor volume on that same day. Statistical significance of differences between treatment and vehicle controls was assessed using analysis of variance single factor test.
# MAP3K8 = MAP3K8 (Homo sapiens, UniProt P41279); assay: Kinase selectivity panel; assay type: biochemical; settings: [ATP] = 1 mM
# PIM1 = PIM1 (Homo sapiens, UniProt P11309); assay: Kinase selectivity panel; assay type: biochemical; settings: [ATP] = 1 mM
# SGK1 = SGK1 (Homo sapiens, UniProt O00141); assay: Kinase selectivity panel; assay type: biochemical; settings: [ATP] = 1 mM
# SRC = SRC (Homo sapiens, UniProt P12931); assay: Kinase selectivity panel; assay type: biochemical; settings: [ATP] = 1 mM
# Pfeiffer DLBCL cells = assay: In vitro proliferation of Pfeiffer DLBCL cells, single agents and combination; assay type: cell-based
# Method: Synergistic effects of INCB053914 in combination with INCB050465, cytarabine, or itacitinib, were assessed based on the Bliss independence model. In this model, the expected additive effect, with the assumption that concentration dependent effects of 2 drugs (A and B) are independent, is given by the equation EIND = EA + EB – EA •EB, where 0 ≤ EIND ≤ 1; EA and EB are the magnitudes of effects of A and B alone at given concentrations.
# The interaction between effects of A and B can be described by the equation Combination Index = EIND/ EOBS, where EOBS is the observed combined effect of A + B expressed as a probability (0 ≤ EOBS ≤ 1). If the point estimate of Combination Index and its upper 97.5% confidence limit are <1 then the combined effect is synergistic; if the 2-sided 95% confidence intervals (CI) encompass 1 then the combined effect is additive (ie, independent); if the point estimate of Combination Index and the lower 2.5% confidence limit are >1 then the combined effect of A + B are antagonistic.
# AURKA = AURKA (Homo sapiens, UniProt O14965); assay: Kinase selectivity panel; assay type: biochemical; settings: [ATP] = 1 mM
# Sequence of AURKA (O14965 whole entry): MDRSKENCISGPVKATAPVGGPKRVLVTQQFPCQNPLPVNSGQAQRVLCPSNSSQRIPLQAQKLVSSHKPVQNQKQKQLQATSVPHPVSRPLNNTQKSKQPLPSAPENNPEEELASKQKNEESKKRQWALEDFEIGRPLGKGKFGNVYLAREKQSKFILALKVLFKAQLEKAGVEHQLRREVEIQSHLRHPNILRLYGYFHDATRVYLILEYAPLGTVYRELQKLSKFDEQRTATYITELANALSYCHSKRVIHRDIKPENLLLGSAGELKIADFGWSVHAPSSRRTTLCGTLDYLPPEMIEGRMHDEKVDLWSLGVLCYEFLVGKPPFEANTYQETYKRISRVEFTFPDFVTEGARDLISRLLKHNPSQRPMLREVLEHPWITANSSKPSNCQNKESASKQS
# Sequence of PIM1 (P11309 whole entry): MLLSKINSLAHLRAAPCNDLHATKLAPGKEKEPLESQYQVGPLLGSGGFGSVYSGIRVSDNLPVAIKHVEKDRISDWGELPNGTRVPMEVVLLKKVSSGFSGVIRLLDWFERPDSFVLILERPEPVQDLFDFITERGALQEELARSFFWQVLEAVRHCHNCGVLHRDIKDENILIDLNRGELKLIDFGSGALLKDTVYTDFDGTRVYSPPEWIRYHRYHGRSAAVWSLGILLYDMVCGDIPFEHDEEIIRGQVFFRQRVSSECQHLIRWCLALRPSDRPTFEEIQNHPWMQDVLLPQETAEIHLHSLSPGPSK
# Sequence of PDGFR BETA (P09619 33-1106): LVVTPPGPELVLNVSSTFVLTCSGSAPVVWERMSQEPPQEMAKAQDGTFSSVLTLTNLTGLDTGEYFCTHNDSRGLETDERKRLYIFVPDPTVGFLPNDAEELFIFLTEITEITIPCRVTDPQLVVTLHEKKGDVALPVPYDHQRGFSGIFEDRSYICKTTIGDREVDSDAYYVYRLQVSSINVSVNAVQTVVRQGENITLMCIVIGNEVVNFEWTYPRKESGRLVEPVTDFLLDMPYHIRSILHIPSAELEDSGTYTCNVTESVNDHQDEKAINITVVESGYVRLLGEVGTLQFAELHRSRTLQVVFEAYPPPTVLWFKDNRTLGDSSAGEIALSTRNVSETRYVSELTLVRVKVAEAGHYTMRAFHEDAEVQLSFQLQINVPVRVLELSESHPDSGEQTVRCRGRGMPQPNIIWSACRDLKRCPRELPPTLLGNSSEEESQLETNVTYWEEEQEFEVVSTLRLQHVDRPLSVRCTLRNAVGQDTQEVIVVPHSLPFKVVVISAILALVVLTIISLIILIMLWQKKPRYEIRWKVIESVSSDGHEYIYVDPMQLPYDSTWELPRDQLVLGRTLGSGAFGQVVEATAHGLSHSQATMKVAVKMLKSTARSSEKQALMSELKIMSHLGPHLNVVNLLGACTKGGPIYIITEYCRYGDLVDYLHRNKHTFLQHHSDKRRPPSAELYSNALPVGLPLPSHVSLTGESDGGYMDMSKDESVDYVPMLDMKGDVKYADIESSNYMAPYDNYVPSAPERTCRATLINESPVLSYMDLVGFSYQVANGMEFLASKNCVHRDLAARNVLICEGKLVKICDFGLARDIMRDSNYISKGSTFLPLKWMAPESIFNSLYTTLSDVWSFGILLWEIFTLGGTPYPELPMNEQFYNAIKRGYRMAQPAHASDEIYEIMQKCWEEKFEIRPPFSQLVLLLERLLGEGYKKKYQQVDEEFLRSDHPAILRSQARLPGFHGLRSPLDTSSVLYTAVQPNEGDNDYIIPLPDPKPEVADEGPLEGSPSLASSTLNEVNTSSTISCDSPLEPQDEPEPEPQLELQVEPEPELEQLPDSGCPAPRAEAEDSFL
# Sequence of SGK1 (O00141 whole entry, species assumed): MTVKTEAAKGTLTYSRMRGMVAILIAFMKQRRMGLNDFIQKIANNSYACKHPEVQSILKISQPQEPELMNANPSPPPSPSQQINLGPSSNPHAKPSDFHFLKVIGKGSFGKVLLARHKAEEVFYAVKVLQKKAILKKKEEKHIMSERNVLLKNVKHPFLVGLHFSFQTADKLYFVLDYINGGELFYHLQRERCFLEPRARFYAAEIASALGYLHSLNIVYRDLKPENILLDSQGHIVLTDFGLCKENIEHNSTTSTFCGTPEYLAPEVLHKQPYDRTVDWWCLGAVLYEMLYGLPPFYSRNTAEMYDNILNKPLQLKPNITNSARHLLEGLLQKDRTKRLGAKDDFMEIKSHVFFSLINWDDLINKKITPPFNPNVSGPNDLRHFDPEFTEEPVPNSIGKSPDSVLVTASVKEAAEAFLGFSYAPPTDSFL
# Sequence of MAP3K8 (P41279 whole entry): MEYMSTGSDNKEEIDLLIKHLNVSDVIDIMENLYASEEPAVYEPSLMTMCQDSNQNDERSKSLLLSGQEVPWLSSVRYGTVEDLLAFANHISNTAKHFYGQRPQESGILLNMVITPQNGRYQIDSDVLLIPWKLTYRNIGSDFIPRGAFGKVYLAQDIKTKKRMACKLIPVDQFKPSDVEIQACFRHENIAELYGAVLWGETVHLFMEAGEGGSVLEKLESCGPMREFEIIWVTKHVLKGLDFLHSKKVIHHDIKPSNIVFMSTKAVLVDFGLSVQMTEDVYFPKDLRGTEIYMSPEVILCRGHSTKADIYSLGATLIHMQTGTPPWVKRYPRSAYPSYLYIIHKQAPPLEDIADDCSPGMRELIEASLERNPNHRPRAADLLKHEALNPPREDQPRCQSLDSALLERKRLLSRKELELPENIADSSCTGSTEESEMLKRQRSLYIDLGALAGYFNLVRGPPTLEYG
# Sequence of SRC (P12931 whole entry, species assumed): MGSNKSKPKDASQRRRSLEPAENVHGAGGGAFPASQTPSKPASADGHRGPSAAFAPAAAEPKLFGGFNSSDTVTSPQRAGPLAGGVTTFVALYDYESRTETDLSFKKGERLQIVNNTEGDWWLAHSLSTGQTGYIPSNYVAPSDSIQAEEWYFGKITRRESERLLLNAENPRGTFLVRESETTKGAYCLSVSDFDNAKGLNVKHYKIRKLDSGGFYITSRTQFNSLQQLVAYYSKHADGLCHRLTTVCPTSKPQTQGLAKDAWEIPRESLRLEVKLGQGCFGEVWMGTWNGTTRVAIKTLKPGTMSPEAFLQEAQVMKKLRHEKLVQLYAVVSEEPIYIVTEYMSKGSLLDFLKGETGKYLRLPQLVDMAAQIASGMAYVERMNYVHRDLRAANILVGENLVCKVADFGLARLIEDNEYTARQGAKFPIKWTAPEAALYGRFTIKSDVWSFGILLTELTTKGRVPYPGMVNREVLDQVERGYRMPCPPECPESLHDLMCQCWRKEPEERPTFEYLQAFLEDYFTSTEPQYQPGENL
smiles,measurement,setting,value
"C[C@H]1CN(c2c(NC(=O)c3ccc(F)c(-c4c(F)cccc4F)n3)cnc3c2CC[C@H]3O)C[C@@H](N)[C@@H]1O.O=P(O)(O)O [INCB053914, N-((R)-4-((3R,4R,5S)-3-amino-4-hydroxy-5-methylpiperidin-1-yl)-7-hydroxy-6,7-dihydro-5H-cyclopenta[b]pyridin-3-yl)-6-(2,6-difluorophenyl)-5-fluoropicolinamide phosphate]",IC50,PDGFR BETA,> 20 µM
same,phosphorylation of downstream PIM kinase substrates (p70S6K/S6 and 4E-BP1),[1],inhibited the phosphorylation of downstream PIM kinase substrates (p70S6K/S6 and 4E-BP1) in a dose-dependent manner
same,4E-BP1 phosphorylation,[2],a decrease in 4E-BP1 phosphorylation
same,PIM2 expression levels,[2],an increase in PIM2 expression levels
same,IC50,[3],0.134 µM
same,lowest dose at which tumor growth inhibition was apparent,MOLM-16 (AML) xenografts; MOLM-16 model,1 mg/kg
same,maximal tumor growth inhibition,"MOLM-16 (AML) xenografts; MOLM-16 tumors, 30 mg/kg twice a day orally",96%
same,mice with a partial regression (PR),"MOLM-16 (AML) xenografts; MOLM-16 tumors, 30 mg/kg twice a day, PR = ≥50% decrease in tumor volume vs treatment start, eight mice/group, 30 mg/kg",six of eight
same,IC50,MAP3K8,> 20 µM
same,IC50,PIM1,< 0.012 µM
same,IC50,SGK1,> 20 µM
same,IC50,SRC,> 20 µM
same,"proliferation of Pfeiffer cells, single agent",Pfeiffer DLBCL cells,inhibited
same,IC50,AURKA,> 20 µM
